Results from PubChem BioAssay AID1419 (Emory University Molecular Libraries Screening Center, 2008).
Calls of active or inactive are those of the source. How the calls were made is not given here.

Experiment: EBV protein-peptide binding inhibitors, dose response, biochemical, fluorescence polarization (AID 1419)
Conditions: cell-free protein-peptide binding, 2 h; for fold change: measured here: P channel fold over control, at 54 µM

| SMILES | IC50 | fold change |
| --- | --- | --- |
| CCN(CC)c1ccc(/C=C/c2cc(-c3ccccc3)c3ccccc3n2)cc1 | 13.5 µM | 80.7 |
| Nc1ccc(O)c2c1C(=O)c1ccccc1C2=O | 3.1 µM | 2.55 |
| Cn1c(=O)c(Nc2ccc(Cl)cc2)c2c3c(cccc31)C(=O)c1ccccc1-2 | < 0.42 µM | 25.4 |
| O=c1cc(-c2ccccc2)nc2c(-c3ccccc3)c(C(F)(F)F)[nH]n12 | > 54 µM (inactive) | 1.02 |
| Cc1ccc2cc3c(N)c4c(C)ccc(C)c4nc3nc2c1 | 0.92 µM | 6.77 |
| CC(C)OC(=O)c1c2c(n3ccccc13)C(=O)c1ccccc1C2=O | 3.85 µM | 2.93 |
| Cc1oc2cc(O)ccc2c(=O)c1-c1nncn1-c1ccccc1 | 0.46 µM | 10.9 |
| CC1=NOC(=O)/C1=C\c1ccc(-c2cc(Cl)ccc2Cl)o1 | 1.49 µM | 4.14 |
| O=C(/C(=C(\[O-])c1ccccc1)[n+]1ccc2ccccc2c1)c1ccccc1 | 4.31 µM | 3.02 |
| Cn1c(=O)cc2c3c(c(N4CCCCC4)ccc31)C(=O)c1ccccc1-2 | 4.67 µM | 1.91 |
| CCCCC1=CC2=C(c3ccco3)C(=O)C(C)(OC(=O)c3ccc(OC)cc3)C(=O)C2=CN1Cc1ccccc1 (stereo not given) | > 54 µM (inactive) | 1.7 |
| COc1ccc2c(C=Nc3c(C)n(C)n(-c4ccccc4)c3=O)c(O)n(Cc3ccco3)c(=O)c2c1 | 4.28 µM | 3.39 |
| CC(=O)OCCCNc1cc(Sc2nc3ccccc3s2)c2nonc2c1[N+](=O)[O-] | 9.79 µM | 4.44 |
| Cc1cc(C(F)(F)F)n2nc(-c3sccc3-n3cccc3)cc2n1 | > 54 µM (inactive) | 0.957 |
| N#C/C(=C\C1=C(N2CCOCC2)C(=C/c2cccc([N+](=O)[O-])c2)/CC1)C(=O)Nc1ccccc1F | 3.64 µM | 2.26 |
| COc1ccc(N2C(=O)[C@@H]3[C@H](C2=O)[C@H]2c4ccccc4C=CN2[C@@H]3C(C)=O)cc1 | 7.62 µM | 5.55 |
| COc1ccc(-c2csc(NC(=O)CSc3nc(C)nc4sc(C(=O)O)c(C)c34)n2)cc1 | > 54 µM (inactive) | 0.987 |
| COc1ccc(Cc2nnc(NC(=O)Cc3cccs3)s2)cc1OC | > 54 µM (inactive) | 1.15 |
| CC(C)NC(=O)c1sc2nc(-c3cccs3)cc(-c3cccs3)c2c1N | 2.1 µM | 15.4 |
| Nc1c(NCCC2=CCCCC2)c(=O)[nH]c(=O)n1Cc1ccccc1 | > 54 µM (inactive) | 1.7 |
| O=C(CSc1nc(-c2ccc(F)cc2)nc2c1Cc1ccccc1O2)Nc1cccc(C(=O)O)c1 | 1.63 µM | 1.13 |
| Cc1ccc(S(=O)(=O)Nc2nc3ccccc3nc2Nc2cccc(S(=O)(=O)N3CCCC3)c2)cc1 | 2.64 µM | 2.44 |
| COc1cc(C2CC(C(F)(F)F)n3ncc(C(=O)O)c3N2)cc(OC)c1OC (stereo not given) | > 54 µM (inactive) | 0.997 |
| O=C(N/N=C/c1cccc(F)c1)c1cc(-c2ccco2)nc2ccccc12 | 3.61 µM | 1.06 |
| COc1ccc(NC(=O)N(CCc2ccccc2)Cc2cc3c(C)cc(C)cc3[nH]c2=O)cc1 | > 54 µM (inactive) | 0.987 |
| Cc1ccc[n+](-c2nc([O-])sc2C=O)c1 | 0.65 µM | 44.1 |
| CCOc1ccc(NC(=O)c2cc3c(C)nc4ccccc4c3o2)cc1 | > 54 µM (inactive) | 0.947 |

| SMILES | IC50 | fold change |
| --- | --- | --- |
| CCCCN1C(=O)C2Cc3c([nH]c4ccccc34)CN2C1=S (stereo not given) | 2.73 µM | 5.04 |
| Cc1cc(-c2cccs2)c2c(N)c(C(=O)c3ccc4c(c3)OCO4)sc2n1 | 5.56 µM | 6.29 |
| N#Cc1c(SCC(N)=O)nc2c(c1-c1ccc(O)cc1)CCCC2 | > 54 µM (inactive) | 0.89 |
| CCOC(=O)[C@]1(C#N)[C@@H]2C=CC(C(C)=O)=CN2[C@@H](C(N)=O)[C@@H]1c1ccsc1 | 4.35 µM | 3.68 |
| CCCCn1c(=O)[nH]c2nc3cc(N)ccc3nc2c1=O | < 0.42 µM | 110 |
| COc1ccc2nc(N3CCCC(O)C3)c(C#N)cc2c1 (stereo not given) | 14.6 µM | 2.78 |
| Cc1c(N2C(=O)c3ccc4c5c(ccc(c35)C2=O)CC4)c(=O)n(-c2ccccc2)n1C | > 54 µM (inactive) | 1.19 |
| O=C1CCNc2ccc(-c3ccccc3)cc21 | < 0.42 µM | 32.7 |
| CCNc1ccc2noc3c2c1C(=O)c1ccccc1-3 | < 0.42 µM | 235 |
| O=C1C2C3C=CC(C3=C(c3ccccc3)c3ccccc3)C2C(=O)N1Cc1ccccc1 (stereo not given) | > 54 µM (inactive) | 0.99 |
| Cn1c(=O)c2[nH]c(-c3ccccc3Cl)c(O)c2n(C)c1=O | 1.99 µM | 2.61 |
| CCOC(=O)c1c(=O)n(O)c2ccc(OC)cc2[n+]1[O-] | 8.11 µM | 1.8 |
| O=C1CCC(=O)N1c1nc2n(n1)C(c1ccccc1)C=C(c1ccc(Br)cc1)N2 (stereo not given) | > 54 µM (inactive) | 1.53 |
| O=C(N=Nc1c(O)[nH]c2ccccc12)c1cc(-c2ccc(F)cc2)n[nH]1 | > 54 µM (inactive) | 0.81 |
| CC1(C)CC(=O)C2=C(C1)OC(N)=C(C#N)[C@@H]2c1ccccc1[N+](=O)[O-] | 2.27 µM | 4.78 |
| O=[N+]([O-])c1ccc(-c2nc3ccc([N+](=O)[O-])cc3[nH]2)cc1 | > 54 µM (inactive) | 1.04 |
| CCN(CC)c1ccc2c(c1)oc(=O)c1c(Cl)cc(=O)oc12 | 6.37 µM | 11.9 |
| O=C1NC(=S)/C(=C\c2ccc(-c3ccccc3Cl)o2)S1 | 26.9 µM | 1.59 |
| N=c1oc2ccc3ccccc3c2cc1-c1nc(-c2ccccc2)cs1 | 4.67 µM | 8.37 |
| COc1ccc(C(=O)c2sc3nc(C)cc(-c4cccs4)c3c2N)cc1OC | 16.5 µM | 7.43 |
| CCCCn1c(N)c(NCCC(C)C)c(=O)[nH]c1=O | 24.4 µM | 1.91 |
| Cc1ccc(S(=O)(=O)c2cc3c(=O)n4ccccc4nc3n(Cc3ccco3)c2=N)cc1 | > 54 µM (inactive) | 1.74 |
| O=C(c1ccc(Cl)cc1)C1C2C(=O)N(c3ccccc3)C(=O)C2C2CCCN21 (stereo not given) | < 0.42 µM | 8 |
| COc1ccc(C2C(C(C)=O)=C(C)N=c3s/c(=C\c4cc(C)n(C)c4C)c(=O)n32)c(OC)c1 (stereo not given) | 4.29 µM | 11.8 |
| Cc1cc2nc3c(=O)n(CCc4ccccc4)c(=O)[nH]c3nc2cc1N | < 0.42 µM | 115 |
| CSc1nc(N(CCO)CCO)c2sc3nc(-c4ccco4)c4c(c3c2n1)CCC4 | > 54 µM (inactive) | 1.07 |
| COc1ccc(S(=O)(=O)c2c(N)n(Cc3ccco3)c3nc4ccccc4nc23)cc1 | 9.62 µM | 1.74 |

| SMILES | IC50 | fold change |
| --- | --- | --- |
| Nn1c(Cc2ccccc2F)nnc1SCC(=O)N1CC(=O)Nc2ccccc21 | > 54 µM (inactive) | 1 |
| O=[N+]([O-])c1ccc(/C=N/n2c(CO)nc3ccccc32)s1 | 22.7 µM | 6.56 |
| Cc1cc(/C=C2\SC(=S)N(Cc3ccco3)C2=O)c(C)n1-c1ccccc1 | 7.24 µM | 4.81 |
| O=c1[nH]c2cc3c(cc2cc1CN(Cc1nnnn1CC1CCCO1)C1CCCCC1)OCO3 (stereo not given) | 51.6 µM (inactive) | 1.73 |
| COc1nc(NCCC2=CCCCC2)nc(OC)n1 | > 54 µM (inactive) | 1 |
| COc1ccc(/C=C2\SC(=O)N(CC(=O)NNC(=O)c3ccccc3O)C2=O)cc1 | > 54 µM (inactive) | 1.01 |
| CCCN1C(=O)/C(=C/C=C2\N(CC)c3ccccc3C2(C)C)SC1=S | 0.95 µM | 12 |
| Cc1cc[n+](-c2[nH]c(=O)sc2/C=N/N=C(\[O-])c2ccccc2)cc1C | < 0.42 µM | 16.5 |
| Cc1cc(N2CCCC2)ccc1C=C(C#N)C#N | 1.86 µM | 15.3 |
| CCCCOc1[nH]c2nc(-c3ccco3)n(Cc3ccco3)c(=N)c2c1C#N | > 54 µM (inactive) | 1.17 |
| COC(=O)c1ccc(C)c(NC(=O)CCSc2ccc(Cl)cc2)c1 | > 54 µM (inactive) | 1.15 |
| CCN(CC)c1ccc2cc(NC(=O)CCC(=O)O)c(=O)oc2c1 | 1.17 µM | 12 |
| CCN1CC=C2C(C#N)=C(N)C(C#N)(C#N)C(c3cc(Cl)ccc3Cl)C2C1 (stereo not given) | > 54 µM (inactive) | 4.31 |
| CCN(CC)S(=O)(=O)c1ccc(C(=O)OCCN2C(=O)c3cccc4c(N5CCOCC5)ccc(c34)C2=O)cc1 | 1.53 µM | 111 |
| COc1ccc(S(=O)(=O)NCCc2ccc(F)cc2)cc1 | > 54 µM (inactive) | 0.98 |
| COc1ccc(-c2nc(CS(=O)CC(=O)NCc3cccnc3)c(C)o2)cc1 (stereo not given) | > 54 µM (inactive) | 1.01 |
| CCSc1cc(N2CCCC2)nc(-c2ccccc2Cl)n1 | 45.7 µM (inactive) | 1.05 |
| CN(C)c1ccc(/C=N/NC(=O)c2cnc3ccccc3c2)cc1 | 18.6 µM | 3.11 |
| O=C1Nc2ccc(Cl)cc2C12Nc1ccccc1-c1nnc(SCc3ccccc3F)nc1O2 (stereo not given) | 3.05 µM | 14.3 |
| N#CC1=C(N)Oc2ccc3ccc(O)cc3c2C1c1ccsc1 (stereo not given) | 1.97 µM | 2.08 |
| Cc1ccc(NC(=O)CN2C(=O)S/C(=C/c3ccc(O)c([N+](=O)[O-])c3)C2=O)cc1C | > 54 µM (inactive) | 0.99 |
| Cc1c(C#N)c2ncnc(-c3ccccc3)c2n1-c1ccccc1 | > 54 µM (inactive) | 1.02 |
| CC(=O)c1ccc2noc(-c3ccc(F)cc3)c2c1 | 3.34 µM | 4.39 |
| CCOC(=O)c1c(Nc2ccccc2N)cc(C)nc1C | > 54 µM (inactive) | 0.997 |
| CCSc1nnc(-c2sc3nnc(-c4ccccc4)c(-c4ccccc4)c3c2N)o1 | 2.2 µM | 36.9 |
| O=C(CSc1nnc(SCc2ccccc2)s1)N/N=C/C=C/c1ccco1 | > 54 µM (inactive) | 1.04 |
